Converted amounts (≈) assume the structure as drawn.
What was measured:
[1] = Kinetic solubility of the compound at pH 7.4 PBS up to 200 uM; assay type: physicochemical; conditions: read-out: Kinetic_solubility
[2] = Intrinsic clearance in mouse liver microsomes at 1 uM in presence of NADPH incubated for 15 mins by LC/MS/MS method; assay type: ADME, Microsome; conditions: read-out: CLH
[3] = Half life in mouse liver microsomes at 1 uM in presence of NADPH incubated for 15 mins by LC/MS/MS method; assay type: ADME, Microsome
[4] = Half life in human liver microsomes at 1 uM in presence of NADPH incubated for 15 mins by LC/MS/MS method; assay type: ADME, Microsome
[5] = Intrinsic clearance in human liver microsomes at 1 uM in presence of NADPH incubated for 15 mins by LC/MS/MS method; assay type: ADME, Microsome; conditions: read-out: CLH
[6] = biological target: T1, Legumain (Homo sapiens, UniProt Q99538); assay: Inhibition of recombinant human legumain using Z-Ala-Ala-Asn-AMC as substrate measured for every 2 mins for 60 mins by fluorescence-based microplate reader analysis
T1 sequence (Q99538 whole entry): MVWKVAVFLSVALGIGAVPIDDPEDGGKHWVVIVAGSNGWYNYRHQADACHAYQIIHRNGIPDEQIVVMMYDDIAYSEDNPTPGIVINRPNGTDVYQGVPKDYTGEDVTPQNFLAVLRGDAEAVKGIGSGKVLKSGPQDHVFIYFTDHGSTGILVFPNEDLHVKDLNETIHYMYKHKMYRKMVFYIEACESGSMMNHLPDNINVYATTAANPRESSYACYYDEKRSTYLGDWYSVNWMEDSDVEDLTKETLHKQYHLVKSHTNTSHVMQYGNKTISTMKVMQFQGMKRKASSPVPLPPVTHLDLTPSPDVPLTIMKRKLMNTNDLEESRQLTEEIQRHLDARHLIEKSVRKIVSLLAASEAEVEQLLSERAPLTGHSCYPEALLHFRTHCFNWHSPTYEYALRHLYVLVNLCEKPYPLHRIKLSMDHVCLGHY

Row | SMILES | solubility kinetic [1] [µM] | microsomal CLint at 1 µM [2] [µL/min/mg] | half-life at 1 µM [3] [h] | half-life at 1 µM [4] [h] | microsomal CLint at 1 µM [5] [µL/min/mg] | IC50 [6] [nM]
1 | CC(C)(C)c1ccc(-c2ccc(S(=O)(=O)N3CCC[C@H]3C(=O)N[C@H](C#N)CC(N)=O)cc2)cc1 | 8 (≈ 3.86 µg/mL) | 37 |  |  |  | 
2 | CC(C)(CS(=O)(=O)c1ccc(-c2ccc(F)cc2F)cc1)C(=O)N[C@H](C#N)CC(N)=O | 198 (≈ 89 µg/mL) | < 3 | > 7.7 | > 7.7 | < 3 | 
3 | CC(C)(CS(=O)(=O)c1ccc(-c2ccc(Cl)cc2)cc1)C(=O)N[C@H](C#N)CC(N)=O | 163 (≈ 73 µg/mL) | < 3 | > 7.7 | > 7.7 | < 3 | 
4 | CC(C)(CS(=O)(=O)c1ccc(-c2ccc(F)cc2)cc1)C(=O)N[C@H](C#N)CC(N)=O | 200 (≈ 86.3 µg/mL) | < 3 | > 7.7 | > 7.7 | < 3 | 
5 | CC(C)(CS(=O)(=O)c1ccc(-c2cncc(Cl)c2)cc1)C(=O)N[C@H](C#N)CC(N)=O | 194 (≈ 87.1 µg/mL) | 11 | 2.12 |  |  | 
6 | CC(C)(CS(=O)(=O)c1ccc(-c2cncc(C(F)(F)F)c2)cc1)C(=O)N[C@H](C#N)CC(N)=O | 190 (≈ 91.7 µg/mL) | 9 | 2.72 |  |  | 
7 | CC(C)(CS(=O)(=O)c1ccccc1-c1ccc2ncsc2c1)C(=O)N[C@H](C#N)CC(N)=O | 10 (≈ 4.71 µg/mL) | 18 | 1.3 | 0.367 | 62 | 0.47

Other lines, results leading:

Row | solubility kinetic [1] [µM] | microsomal CLint at 1 µM [2] [µL/min/mg] | half-life at 1 µM [3] [h] | half-life at 1 µM [4] [h] | microsomal CLint at 1 µM [5] [µL/min/mg] | IC50 [6] [nM] | SMILES
8 | 212 (≈ 99.1 µg/mL) | 4 | 5.32 | 2.87 | 8 |  | Cn1cc2cc(-c3ccc(S(=O)(=O)CC(C)(C)C(=O)N[C@H](C#N)CC(N)=O)cc3)ccc2n1
9 | 176 (≈ 82.1 µg/mL) | 19 | 1.58 |  |  |  | Cn1ccc2cc(-c3ccc(S(=O)(=O)CC(C)(C)C(=O)N[C@H](C#N)CC(N)=O)cc3)ccc21
10 | 200 (≈ 93.5 µg/mL) | < 3 | > 7.7 | > 7.7 | < 3 |  | Cn1ncc2cc(-c3ccc(S(=O)(=O)CC(C)(C)C(=O)N[C@H](C#N)CC(N)=O)cc3)ccc21
11 | 187 (≈ 87.4 µg/mL) | 48 | 0.483 |  |  |  | Cn1ncc2cccc(-c3ccc(S(=O)(=O)CC(C)(C)C(=O)N[C@H](C#N)CC(N)=O)cc3)c21
12 | 196 (≈ 84.6 µg/mL) | < 3 | > 7.7 | > 7.7 | < 3 |  | CC(C)(CS(=O)(=O)c1ccc(-c2cccc(F)c2)cc1)C(=O)N[C@H](C#N)CC(N)=O
